Measured values reported in article PMC9827864, “In Situ Inhibitor Synthesis and Screening by Fluorescence Polarization: An Efficient Approach for Accelerating Drug Discovery” (Angewandte Chemie (International Ed. in English), 2022).

How the values were obtained:
Format in all cases: in vitro ADME
Plasma stability (rat) = conditions: 100 μM
Protocol: A structure of PHD2 in complex with Fe and a 2OG competing inhibitor (PDB ID: 4KBZ) was obtained from PDB website. The structure files of protein and compounds for docking were prepared using the Discovery Studio (DS) 2020 software. A water molecule HOH624, conserved in the active binding site of PHD2, was retained during the docking. Residues of PHD2 around the native ligand (radius = 10 Å) were defined as the binding sites for docking. Subsequently, the ligand was removed; the Fe (II) was retained during the docking. Compounds were docked into the binding sites using GOLD 5.1. Docking procedures were performed using the default setting with 100 genetic algorithm (GA) runs of ligands. […]
17 was preincubated with microsomes from different species (0.5 mg/mL) at 1 μM for 5 min at 37 °C in 100 mM PBS buffer (pH 7.4). […] The samples were centrifuged at 5000 rpm f or 10 min; the supernatants were then analyzed by HPLC. […]
Representative compounds and Roxadustat were formulated in normal saline solution. […] Subsequently, these samples were analyzed for reticulocytes in the center for new drug safety evaluation and research of China Pharmaceutical University (ADVIA 2120 hematology system). […]
Plasma EPO was evaluated using the erythropoietin quantikine ELISA kit for mice (MEP00B). […]
in normal saline solution. […] Plasma was collected by centrifugation at 3000 rpm, these plasmas were detected by E PO […]

[1] = Metabolic stability in human liver microsomes
[2] = Metabolic stability in rat liver microsomes
Protocol: page 15: SUPPORTING INFORMATION 3. Molecular Modeling A structure of PHD2 in complex with Fe and a 2OG competing inhibitor (PDB ID: 4KBZ) was obtained from PDB website. The structure files of protein and compounds for docking were prepared using the Discovery Studio (DS) 2020 software. A water molecule HOH624, conserved in the active binding site of PHD2, was retained during the docking. Residues of PHD2 around the native ligand […] Subsequently, the ligand was removed; the Fe (II) was retained during the docking. Compounds were docked into the binding sites using GOLD 5.1. Docking procedures were performed using the default setting with 100 genetic algorithm (GA) runs of ligands. […] The samples were centrifuged at 5000 rpm f or 10 min; the supernatants were then analyzed by HPLC. […] Subsequently, these samples were analyzed for reticulocytes in the center for new drug safety evaluation and research of China Pharmaceutical University (ADVIA 2120 hematology system). 5.2 In vivo EPO increased assay Plasma EPO was evaluated using the erythropoietin quantikine ELISA kit for mice (MEP00B). […] Plasma was collected by centrifugation at 3000 rpm, these plasmas were detected by E PO ELISA. […] The hemoglobin of samples was analyzed in the center for new drug safety evaluation and research at China Pharmaceutical University (ADVIA 2120 hematology system). […]

[3] = pH 7.4, read-out: t1/2 in liver microsomes

O=C(N/N=C/c1cccc(O)c1Cl)c1cnc(-c2cccnn2)[nH]c1=O [compound 17]
plasma stability (Plasma stability (rat)): stable in rat plasma
compound present (remaining) in liver microsomes ([1]; after 50 min, 1 μM, 0.5 mg/mL): > 80%
half-life at 1 μM [1, 3]: > 100 min
compound present (remaining) in liver microsomes ([2]; after 50 min, 1 μM, 0.5 mg/mL): > 80%
half-life at 1 μM [2, 3]: > 100 min
